Test results from patent publication US12195461B2, “Pyrrolo-dipyridine compounds” (OssiFi Therapeutics LLC, priority 2018, dated 2025).

Columns and labels:
[1] = Metabolic stability in pooled human liver microsomes; format: in vitro ADME; conditions: 0.1 μM compound, human liver microsomes 0.1 mg/mL, NADPH, 37° C., 60 minutes
Protocol: Compounds of the present invention (0.1 μM) were incubated with microsomes at 37° C. for a total of 60 minutes. The reaction contained pooled human liver microsomal protein (0.1 mg/mL) in potassium phosphate buffer with NADPH. At the indicated time points (0, 5, 15, 30 and 60 minutes). Samples were analyzed by LC/MS/MS and remaining parent drug was calculated using Microsoft Excel (2007). Obach R S, Drug Metab Dispos. 27(11):1350-1359 (1999).

[2] = system: MC3T3-E1 (mouse calvarial) osteoblast cells; experiment: Bone formation assay: rescue of sclerostin inhibition of mineralization (total calcium); format: cell-based; design: key to Sclerostin Inhibition of Mineralization; improvement over sclerostin alone: − indicates no improvement over sclerostin protein alone; + indicates an IC100 >10 μM; ++ indicates an IC100 <10 μM; conditions: for Sclerostin Inhibition of Mineralization; improvement over sclerostin alone: IC100 class, calcium concentration
Protocol: Mineralization (crystalline calcium phosphate formation) represents an in vitro model of bone formation. Using an assay in which the amount of mineralization is quantified by measuring total calcium after solubilization of deposited crystalline calcium phosphate, sclerostin was previously shown to inhibit mineralization in MC3T3-E1 (mouse calvarial) osteoblast cells. Li et al., J Bone Miner Res 24:578-588 (2008). Following the protocol described in Li et al., Compounds were assayed for their ability to rescue the inhibition of mineralization by sclerostin in MC3T3 osteoblast cells. […] Addition of a compound of Examples 1-6 neutralized sclerostin-mediated inhibition of mineralization, as reflected by the increase in calcium concentration.

[3] = target: T1, sclerostin (Homo sapiens, UniProt Q9BQB4); experiment: Modulation of sclerostin/Wnt activity: restoring Wnt3a signaling in the presence of sclerostin; format: cell-based; design: key to Sclerostin Inhibition Assay; improvement over sclerostin alone: − indicates no improvement over sclerostin protein alone; + indicates an IC100 >10 μM; ++ indicates an IC100 <10 μM; conditions: for Sclerostin Inhibition Assay; improvement over sclerostin alone: IC100 class, Wnt3a signaling in human embryonic cells in the presence of sclerostin
T1 construct: host or cells: human embryonic cells (assay cells)
T1 sequence (Q9BQB4 24-213): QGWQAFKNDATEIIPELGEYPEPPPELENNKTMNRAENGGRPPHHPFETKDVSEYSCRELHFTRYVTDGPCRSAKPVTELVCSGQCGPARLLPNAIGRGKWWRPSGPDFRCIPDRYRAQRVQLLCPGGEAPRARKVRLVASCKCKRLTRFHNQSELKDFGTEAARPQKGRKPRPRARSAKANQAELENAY
Protocol: Compounds synthesized in accordance with the methods of Examples 1-6 were assayed for their ability to restore Wnt signaling in the presence of sclerostin consistent with a known sclerostin antagonist, sclerostin Mab. See, Ellies et al., J Bone Miner Res 21:1738-1749 (2006). […] The addition of a known sclerostin antagonist inhibited sclerostin inhibition of Wnt3a signaling, thus restoring Wnt3a signaling in the cell (IC100 at 10 μM) (data not shown).

Row | Compound | Metabolic Stability [1] | Sclerostin Inhibition of Mineralization; improvement over sclerostin alone [2] | Sclerostin Inhibition Assay; improvement over sclerostin alone [3] | effect on mineralization, as measured by calcium concentration (in words) [2] | effect on Wnt3a signaling (in words) ([3]; human embryonic cells)
1 | Cl.FC(F)(F)c1nccc2c3ccncc3n(CCN3CCOCC3)c12 [Example 1, 4-(2-(1-(Trifluoromethyl)-9H-pyrrolo[2,3-c:5,4-c′]dipyridin-9-yl)ethyl)morpholine hydrochloride salt] | ++ (++ indicates a stability >1x) | + (+ indicates an IC100 >10 μM) | + (+ indicates an IC100 >10 μM) |  | 
2 | Cl.[O-][n+]1ccc2c3ccnc(C(F)(F)F)c3n(CCN3CCOCC3)c2c1 [Example 2, 9-(2-Morpholinoethyl)-8-(trifluoromethyl)-9H-pyrrolo[2,3-c:5,4-c′]dipyridine 2-oxide hydrochloride salt] | ++ (++ indicates a stability >1x) | − | − |  | 
3 | COc1ccc2c3ccnc(C(F)(F)F)c3n(CCN3CCOCC3)c2n1.Cl [Example 3, 4-(2-(2-Methoxy-8-(trifluoromethyl)-9H-pyrrolo[2,3-b:5,4-c′]dipyridin-9-yl)ethyl)morpholine hydrochloride salt] | ++ (++ indicates a stability >1x) | ++ (++ indicates an IC100 <10 μM) | ++ (++ indicates an IC100 <10 μM) |  | 
4 | COc1cc2c(cn1)c1ccnc(C(F)(F)F)c1n2CCN1CCOCC1.Cl [Example 4, 4-(2-(3-Methoxy-6-(trifluoromethyl)-5H-pyrrolo[2,3-c:4,5-c′]dipyridin-5-yl)ethyl)morpholine hydrochloride salt] | ++ (++ indicates a stability >1x) | ++ (++ indicates an IC100 <10 μM) | ++ (++ indicates an IC100 <10 μM) |  | 
5 | COc1ncc2c3ccnc(C(F)(F)F)c3n(CCN3CCOCC3)c2n1 [Example 5, 4-(2-(2-Methoxy-8-(trifluoromethyl)-9H-pyrido[4′,3′:4,5]pyrrolo[2,3-d]pyrimidin-9-yl)ethyl)morpholine] | ++ (++ indicates a stability >1x) | ++ (++ indicates an IC100 <10 μM) | ++ (++ indicates an IC100 <10 μM) |  | 
6 | COc1nc2c(cc1F)c1ccnc(C(F)(F)F)c1n2CCN1CCOCC1.Cl [Example 6, 4-(2-(3-Fluoro-2-methoxy-8-(trifluoromethyl)-9H-pyrrolo[2,3-b:5,4-c′]dipyridin-9-yl)ethyl)morpholine hydrochloride salt] | ++ (++ indicates a stability >1x) | ++ (++ indicates an IC100 <10 μM) | ++ (++ indicates an IC100 <10 μM) |  | 
7 | Sclerostin protein: sclerostin protein, antagonizes Wnt3a signaling and inhibits mineralization; the assays' inhibitory stimulus and baseline |  | − | − | significant decrease in mineralization | antagonized Wnt3a signaling
